The values below come from patent US20030124068A1, “Oral preparation” (priority 2000, published 2003).

A short description of data set [1]: Dissolving capacity (HAP or FAP dissolving and CaF2 dissolving). The data set is classed as physicochemical. The following applies: 1M aqueous solution of the acid containing 23% sodium fluoride, pH 4 with sodium hydroxide; diluted to 30 wt. %, stirred 24 hours with HAP, FAP, CaF2 powder. As for the experimental part:
Dissolving capacity was measured in the following manner. Described specifically, the preparation is diluted to 30 wt. % with deionized water. The phosphorus and calcium concentrations in the solution were each determined in advance by using a calorimetric reagent and they were subtracted later. To 100 ml of the diluted solution were added hydroxyapatite (HAP), fluorapatite (FAP) and CAF2, each in the powdery form. The resulting mixture was stirred for 24 hours by a magnetic stirrer and the reaction mixture was filtered to remove the solid matter. The phosphorus and calcium concentrations in the solution were determined by a calorimetric reagent.
As the calorimetric reagents for calcium and phosphorus, Calcium Test Wako (for determination of calcium, product of Wako Pure Chemicals) and P Test Wako (for determination of inorganic phosphorus, product of Wako Pure Chemicals) were employed, respectively.

The test system of data set [2] is cow tooth (having a mirror polished surface). Description: Whitening effect on immersed cow tooth, judged from photographs by a panel of 20 experts. The following applies: 1M aqueous solution of the acid containing 23% sodium fluoride, pH 4; cow tooth immersed 24 hours. As for the experimental part: Using acids different in pKa, 1M aqueous solutions containing 23% sodium fluoride were prepared, followed by adjustment to pH 4 with sodium hydroxide. After measuring their dissolving capacity, a cow tooth (having a mirror polished surface), which had been photographed in advance, was immersed in each solution for 24 hours. After the treatment, the tooth was taken out from the solution and photographed again. The color of the tooth before immersion was compared with that after immersion. The comparison was made as follows: A panel of 20 experts was asked to see the photographs of the tooth before and after treatment and to evaluate it as ◯ when the teeth was whitened after the treatment, while as × when no change in color was recognized. Upon evaluation, the tooth which was whitened but lost its gloss was evaluated as ×. The preparation evaluated as ◯ by at least a half of the experts was judged effective and the others were judged ineffective.
Toothpastes as shown in Table 3 were prepared in a conventional manner. Dissolving capacity of each of their 30% aqueous solutions was measured as in Example 1. Their whitening effect was measured also as in Example 1 (by immersing in the toothpaste for 24 hours).

The conditions of data set [3]: 25° C.; acid added; cited from earlier work.

Consider `CC(=O)O` [Acetic acid], for which, in data set [1], the Dissolving capacity entry is recorded as “∘”. Besides, the Whitening effect entry in data set [2] was “∘”. With `O=C(O)CC(O)(CC(=O)O)C(=O)O` [Citric acid], the pKa in data set [3] was 2.9. For the same molecule, in data set [1], the Dissolving capacity entry is on record as “∘”. Moreover, in data set [2], the Whitening effect entry is reported as “∘”.

`Cl` [Hydrochloric acid, reference compound]: the Dissolving capacity entry in data set [1] is “∘”.

In the case of `CC(O)C(=O)O` (centres unmarked) [Lactic acid], the Dissolving capacity result in data set [1] was “∘”. In addition, the Whitening effect result in data set [2] is given as “∘”. `O=C(O)CC(O)C(=O)O` (centres unmarked) [Malic acid]: in data set [1], the Dissolving capacity result was “∘”. Further, the Whitening effect entry in data set [2] was “∘”. For `O=P(O)(O)O` [Phosphoric acid, reference compound], the Dissolving capacity result in data set [1] is listed as “∘”. Consider `O=S(=O)(O)O` [Sulfuric acid, reference compound], for which the Dissolving capacity entry in data set [1] is “∘”. As to `O=C(O)C(O)C(O)C(=O)O` (centres unmarked) [Tartaric acid], in data set [3], the pKa is listed as 2.99. Also, the Whitening effect entry in data set [2] is “∘”.
